Data from PMC6248931 (Science Advances, 2018).

Legend:
[1] = test system: HIV; details: cited from earlier work
[2] = test system: influenza virus; details: cited from earlier work
[3] = molecular target: HIV HR2 peptide (Human immunodeficiency virus type 1, UniProt P03377); assay type: binding
[4] = test system: HIV HR1-HR2 interaction; assay type: binding
[5] = test system: HIV-1 pseudovirions; assay type: cell-based; details: 1 μM
[6] = test system: HIV; details: human, in vivo; cited from earlier work

Sequence of HIV HR2 peptide (P03377 633-666 limits assumed): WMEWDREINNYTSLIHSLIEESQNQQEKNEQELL

C=C(C)[C@@H]1CC[C@]2(C(=O)O)CC[C@]3(C)[C@H](CC[C@@H]4[C@@]5(C)CC[C@H](O)C(C)(C)[C@@H]5CC[C@]43C)[C@@H]12 [BA, betulinic acid]
inhibitory activity against HIV infection [1]: show inhibitory activity

CC1(C)CC[C@]2(C(=O)O)CC[C@]3(C)C(=CC[C@@H]4[C@@]5(C)CC[C@H](O)C(C)(C)[C@@H]5CC[C@]43C)[C@@H]2C1 [OA, oleanolic acid]
inhibitory activity against HIV infection [1]: show inhibitory activity | inhibitory effect on influenza virus entry [2]: significant inhibitory effect

C=C(C)[C@@H]1CC[C@]2(C(=O)NCCCCCCCC(=O)N(CCCC3(C)N=N3)CC(=O)O)CC[C@]3(C)C(CCC4[C@@]5(C)CC[C@H](O)C(C)(C)C5CC[C@]43C)C12 (stereo partly shown) [Y20]
binding to HIV-HR2 (in words) [3]: binds tightly | effect on HIV-HR1/HIV-HR2 affinity (in words) [4]: significantly reduced their affinity | inhibitory activity on the infectivity of HIV-1 pseudovirions [5]: exhibited inhibitory activity

C=C(C)[C@@H]1CC[C@]2(C(=O)O)CC[C@]3(C)[C@H](CC[C@@H]4[C@@]5(C)CC[C@H](OC(=O)CC(C)(C)C(=O)O)C(C)(C)[C@@H]5CC[C@]43C)[C@@H]12 [bevirimat]
efficacy in clinical trials [6]: promising efficacy
